Columns and labels:
[1] = test system: artificial corneal tissue; assay: Ocular toxicity test on artificial cornea (MTT); type: cell-based; conditions: up to 50 μM, the maximum concentration
Procedure: In order to evaluate the ocular toxicity that may be induced upon ocular exposure of the compound of Example 1 of the present invention, the following experiment was performed using the cultured artificial cornea.
The artificial corneal tissue cultured in agarose medium was transferred to a 12-well cell culture plate, to which culture medium was added, followed by culture in a humidified 37° C. 5% CO2 incubator for one day. The medium on the artificial cornea culture surface was eliminated, and 30 μl of the compound of Example 1 of the present invention diluted with PBS was evenly applied to the cornea surface, followed by incubation at room temperature for 30 minutes. The cell surface was washed twice with 10 ml of PBS, and a fresh culture medium was added, followed by incubation in a humidified 37° C. 5% CO2 incubator for 30 minutes. In order to measure the viability of the cornea, the artificial cornea was transferred to a 12-well plate containing 2 ml of MTT solution (1 mg/ml), followed by culture for 3 hours. The stained artificial corneal tissue was taken and transferred to a tube containing 1.5 ml of isopropanol, and then incubated with shaking to decolorize. The solution was centrifuged at 13,000 rpm for 5 minutes, 100 μl of the supernatant was transferred to each well of a 96-well plate, and absorbance was measured at 570 nm.

hERG channel protein = molecular target: T1, hERG channel protein (Homo sapiens, UniProt Q12809); assay: hERG patch clamp test in HEK-293 cells overexpressing hERG; type: cell-based; conditions: at 10 μM
T1 construct: expressed in transfected cells; host or cells: HEK-293
T1 sequence (Q12809 whole entry): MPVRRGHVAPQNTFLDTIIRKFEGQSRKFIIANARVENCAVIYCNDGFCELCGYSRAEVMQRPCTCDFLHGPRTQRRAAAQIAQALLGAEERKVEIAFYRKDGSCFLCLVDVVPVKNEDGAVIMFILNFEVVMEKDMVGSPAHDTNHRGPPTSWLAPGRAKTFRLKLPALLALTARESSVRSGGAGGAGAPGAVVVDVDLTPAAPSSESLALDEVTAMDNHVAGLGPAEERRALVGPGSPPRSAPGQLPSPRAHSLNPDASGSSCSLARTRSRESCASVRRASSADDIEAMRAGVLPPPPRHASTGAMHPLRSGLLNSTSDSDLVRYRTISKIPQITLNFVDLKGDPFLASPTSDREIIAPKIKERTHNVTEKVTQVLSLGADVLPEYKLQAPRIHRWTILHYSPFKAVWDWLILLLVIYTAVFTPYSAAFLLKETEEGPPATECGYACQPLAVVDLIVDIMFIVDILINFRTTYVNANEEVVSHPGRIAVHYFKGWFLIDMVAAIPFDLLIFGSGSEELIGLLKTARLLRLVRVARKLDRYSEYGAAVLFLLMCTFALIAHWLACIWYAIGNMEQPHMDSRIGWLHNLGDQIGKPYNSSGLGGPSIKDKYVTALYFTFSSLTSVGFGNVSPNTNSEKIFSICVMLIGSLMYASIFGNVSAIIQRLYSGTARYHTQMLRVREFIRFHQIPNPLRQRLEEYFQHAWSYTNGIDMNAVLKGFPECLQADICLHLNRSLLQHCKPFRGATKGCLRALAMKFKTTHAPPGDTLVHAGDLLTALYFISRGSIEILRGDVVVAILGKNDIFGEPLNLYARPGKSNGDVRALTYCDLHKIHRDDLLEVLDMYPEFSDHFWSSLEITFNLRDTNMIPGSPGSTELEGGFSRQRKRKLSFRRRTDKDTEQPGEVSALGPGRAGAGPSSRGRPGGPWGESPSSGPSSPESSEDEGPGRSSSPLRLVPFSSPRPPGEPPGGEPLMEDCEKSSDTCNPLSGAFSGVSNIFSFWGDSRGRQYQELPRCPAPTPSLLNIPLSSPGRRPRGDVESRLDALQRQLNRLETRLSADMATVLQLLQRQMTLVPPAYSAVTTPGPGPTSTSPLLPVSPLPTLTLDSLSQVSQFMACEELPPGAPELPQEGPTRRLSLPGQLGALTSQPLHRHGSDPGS
Procedure: In order to evaluate the possibility of inducing cardiotoxicity of the compound of Example 1 of the present invention in vivo, the inhibitory potential to the hERG (human ether-a-go-go related gene) K^+ channel protein, known as a main cause of arrhythmias, was tested.
Next, in order to evaluate the activity of the hERG channel protein using an electrophysiological method, a patch clamp test was performed. The activity of the hERG channel protein was measured using the HEK-293 cell line overexpressing the hERG channel protein. The cells were acclimatized and cultured in a humidified 37° C. 5% CO2 incubator, washed with PBS (phosphate buffer solution) at the time of growth that occupies 70-80% of the culture dish every 2-3 days, and then subcultured by treating with Trypsin-EDTA. For the test, 2×10^5 cells were aliquoted in a 60 mm cell culture dish, and then cultured in a humidified 5% CO2 incubator for 48 hours. The cultured cells were detached by treating Trypsin-EDTA (Gibco, USA), and the flow of K^+ by the hERG channel protein was measured by applying an automated patch clamp equipment (PatchXpress, Molecular Device).

NO production = NO production in LPS-treated Raw 264.7 macrophages (Griess reagent); type: cell-based, mouse
Procedure: In order to confirm the effect of the compound of Example 1 of the present invention on NO production in Raw 264.7 mouse macrophages in which inflammatory response was induced by LPS, an experiment was performed as follows.
(§1) Raw 264.7 mouse macrophages were aliquoted in a 96-well plate at the density of 1×10^5 cells/well and stabilized in a 37° C., 5% CO2 incubator for 24 hours. The Raw 264.7 cells were treated with the compound of Example 1 by concentration. After 1 hour, the cells were treated with 1 ug/ml of LPS and cultured for 24 hours. For the measurement of NO production, 40 mg/ml of Griess reagent was prepared and it was mixed with the culture supernatant at the same ratio. The mixture was reacted at room temperature for 15 minutes, and absorbance was measured at 540 nm. Based on the results obtained therefrom, the cell viability and NO production rate were expressed as percentages in terms of LPS.

[2] = test system: VERO, HFL-1, L929, NIH 3T3, CHO-K1 and HMV-II cell lines; assay: Non-selective general cytotoxicity test; type: cell-based; conditions: all cell lines, 24 hours
Procedure: In this experiment, the cell lines derived from different species, VERO (African green monkey kidney cell line), HFL-1 (human embryonic lung cell line), L929 (mouse fibroblast cell line), NIH 3T3 (mouse embryonic fibroblast cell line), CHO-K1 (Chinese hamster ovary cell line) and HMV-II (human malignant melanoma cell line), were used.
Particularly, VERO, HFL-1, L929 and NIH 3T3 cell lines were cultured in DMEM, CHO-K1 was cultured in RPMI1640 medium, and HMV-II was cultured in DME/F-12 medium. 10% FBS (Fetal Bovine Serum) and 100 μg/mL of antibiotics were added to each medium. The cells were acclimatized and cultured in a humidified 37° C. 5% CO2 incubator, washed with PBS (phosphate buffer solution) at the time of growth that occupies 70-80% of the culture dish every 2-3 days, and then subcultured by treating with Trypsin-EDTA (Gibco, USA).
The cells used in this Experimental Example were aliquoted into a 96-well culture plate at the density of 15,000-25,000 cells/well, and then acclimatized and cultured in a humidified 37° C. […] The cell viability was measured according to the standard method using a Cyto XTM cell viability assay kit ([…]). […] 5% CO2 incubator, followed by measuring the absorbance at 450 nm. The survival rate was measured by calculating the ratio of the absorbance changed compared to the absorbance measured in the group treated with DMSO alone.

[3] = test system: Raw 264.7 mouse macrophages; assay: Cell viability of LPS-treated Raw 264.7 macrophages; type: cell-based
Procedure: as §1

## [O-][S+](c1ccc(F)cc1)c1nccc2ccccc12 (centres unmarked) [Example 1, 1-((4-Fluorophenyl)Sulfinyl)Isoquinoline]
[1]
  survival rate of artificial cornea: no significant decrease of the survival rate
hERG channel protein
  inhibition of the activity of the hERG channel protein: about 10%
NO production; 1 ug/ml LPS, 24 hours, Raw 264.7 cells, test concentration not given
  NO production (% of control): 40 % of control
NO production; LPS-treated Raw 264.7, 0.1, 0.5, 1, 10 and 100 μM, effect increased with concentration (FIG. 3)
  NO production: inhibited
[2]; maximum test concentration of 100 μM
  cytotoxicity: less than 50%
[2]; up to 10 μM
  toxicity (cell viability): no significant toxicity
[3]; LPS-treated Raw 264.7, 0.1, 0.5, 1, 10 and 100 μM (FIG. 3)
  cytotoxicity: no significant cytotoxicity
[3]; LPS-treated Raw 264.7 cells, 24 hours, test concentration not given
  Cell viability (% of control): 90 % of control

Reference: patent US11878013B2, “Isoquinoline derivative, preparing method thereof, and pharmaceutical composition for preventing or treating autophagy related diseases containing the same as an active ingredient” (Korea Research Institute of Chemical Technology, priority 2021, dated 2024)
